The results in this text go back to patent publication US9346809B2 (LEO PHARMA A/S, priority 2009, dated 2016).

Holding throughout (assay type): biochemical
Test [1] deals with T1, JAK1 (aa 850-1154, catalytic domain, GST-tag) (Homo sapiens, UniProt P23458).
T1 construct: JAK1 (aa 850-1154) and TYK2 (aa 871-1187) are expressed with an N-terminally fused GST-tag; GST (N); purchased Carna Biosciences, Inc; host or cells: baculovirus expression system
Nature of the test: JAK kinase assay (HTRF, phosphorylation of TK substrate-biotin), JAK1. The conditions noted are these: ATP at Km (7 μM). A digest of the protocol:
(§1)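 EC50 values come from HTRF signal of phospho-peptide detected by STK Ab Cryptate and Streptavidin-XL665 after overnight incubation. Reactions ran 20-30 min at RT in Hepes pH 7.0, 0.01% BSA, 1 mM DTT, with ATP at Km: 7, 4, 2 and 13 μM for JAK1, JAK2, JAK3, TYK2.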

Test [2] deals with T2, JAK2 (catalytic domain, His-tag) (Homo sapiens, UniProt O60674).
T2 construct: All four purified enzymes contain only the catalytic domain; His (N); purchased Carna Biosciences, Inc; host or cells: baculovirus expression system
Nature of the test: JAK kinase assay (HTRF, phosphorylation of TK substrate-biotin), JAK2. The conditions noted are these: ATP at Km (4 μM). Summed up:
as §1

In test [3] the target is T3, JAK3 (catalytic domain, His-tag) (Homo sapiens, UniProt P52333).
T3 construct: All four purified enzymes contain only the catalytic domain; His (N); purchased Carna Biosciences, Inc; host or cells: baculovirus expression system
Nature of the test: JAK kinase assay (HTRF, phosphorylation of TK substrate-biotin), JAK3. The conditions noted are these: ATP at Km (2 μM). A digest of the protocol:
as §1

Test [4] concerns the target T4, TYK2 (aa 871-1187, catalytic domain, GST-tag) (Homo sapiens, UniProt P29597).
T4 construct: JAK1 (aa 850-1154) and TYK2 (aa 871-1187) are expressed with an N-terminally fused GST-tag; GST (N); purchased Carna Biosciences, Inc; host or cells: baculovirus expression system
T4 sequence (P29597 871-1187): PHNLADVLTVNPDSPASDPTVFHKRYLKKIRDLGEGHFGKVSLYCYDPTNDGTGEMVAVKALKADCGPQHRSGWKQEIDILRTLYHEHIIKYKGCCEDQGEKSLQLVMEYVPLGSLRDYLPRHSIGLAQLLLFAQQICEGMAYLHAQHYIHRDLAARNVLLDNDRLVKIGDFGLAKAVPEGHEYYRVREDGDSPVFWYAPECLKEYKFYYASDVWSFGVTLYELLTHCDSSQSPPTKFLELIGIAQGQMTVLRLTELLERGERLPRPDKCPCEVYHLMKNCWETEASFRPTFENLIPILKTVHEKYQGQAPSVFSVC
Nature of the test: JAK kinase assay (HTRF, phosphorylation of TK substrate-biotin), TYK2. The conditions noted are these: ATP at Km (13 μM). Summed up: as §1

Setting [5] is: read-out: JAK1 kinase inhibitory activity (EC50 indicator).
Setting [6] is: read-out: JAK2 kinase inhibitory activity (EC50 indicator).
[7] abbreviates: read-out: JAK3 kinase inhibitory activity (EC50 indicator).
The mark [8] stands for this setting: read-out: TYK2 kinase inhibitory activity (EC50 indicator).
[9] abbreviates: HTRF assay, read-out: JAK1 kinase inhibitory activity (EC50 indicator).
Where [10] appears, read: HTRF assay, read-out: JAK2 kinase inhibitory activity (EC50 indicator).
Where [11] appears, read: HTRF assay, read-out: JAK3 kinase inhibitory activity (EC50 indicator).
[12] abbreviates: HTRF assay, read-out: TYK2 kinase inhibitory activity (EC50 indicator).
Where [13] appears, read: HTRF assay, read-out: JAK1 kinase inhibitory activity (EC50).
Where [14] appears, read: HTRF assay, read-out: JAK2 kinase inhibitory activity (EC50).
The mark [15] stands for this setting: HTRF assay, read-out: JAK3 kinase inhibitory activity (EC50).
Where [16] appears, read: HTRF assay, read-out: TYK2 kinase inhibitory activity (EC50).

Molecules are shown by their SMILES. pEC50: −log10 of the molar value. Read-outs that look alike come from different tables or passages of the source. Bounds are passed on as bounds.

T2 sequence (O60674 849-1124 limits assumed): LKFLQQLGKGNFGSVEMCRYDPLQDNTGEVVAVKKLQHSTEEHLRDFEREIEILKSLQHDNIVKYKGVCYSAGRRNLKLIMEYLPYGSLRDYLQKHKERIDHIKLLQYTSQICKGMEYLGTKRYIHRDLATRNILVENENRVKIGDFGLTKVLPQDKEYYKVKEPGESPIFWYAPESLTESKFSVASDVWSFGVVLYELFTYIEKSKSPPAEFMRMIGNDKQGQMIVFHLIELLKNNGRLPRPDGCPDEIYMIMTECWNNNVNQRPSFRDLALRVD
T3 sequence (P52333 822-1111 limits assumed): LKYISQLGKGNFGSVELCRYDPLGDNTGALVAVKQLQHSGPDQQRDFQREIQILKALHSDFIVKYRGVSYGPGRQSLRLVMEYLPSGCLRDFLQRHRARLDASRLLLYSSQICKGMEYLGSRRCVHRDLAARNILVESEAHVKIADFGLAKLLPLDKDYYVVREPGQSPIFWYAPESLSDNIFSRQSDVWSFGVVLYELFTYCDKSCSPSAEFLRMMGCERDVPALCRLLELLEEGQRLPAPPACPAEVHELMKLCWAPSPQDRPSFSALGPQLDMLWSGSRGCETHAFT
T1 sequence (P23458 850-1154): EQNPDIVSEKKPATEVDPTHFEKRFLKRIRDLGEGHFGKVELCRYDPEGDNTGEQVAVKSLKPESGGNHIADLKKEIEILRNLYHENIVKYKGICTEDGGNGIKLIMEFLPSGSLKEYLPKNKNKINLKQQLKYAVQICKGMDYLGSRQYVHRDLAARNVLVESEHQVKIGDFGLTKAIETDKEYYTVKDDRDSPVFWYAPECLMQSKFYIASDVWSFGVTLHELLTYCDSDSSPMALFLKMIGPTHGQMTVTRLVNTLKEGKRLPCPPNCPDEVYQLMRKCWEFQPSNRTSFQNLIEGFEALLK

For the compound `O=C(c1cccc(O)n1)N1CCN(c2ncnc3[nH]ccc23)CC12CC2` [Example 166, (6-Hydroxy-pyridin-2-yl)-[7-(7H-pyrrolo[2,3-d]pyrimidin-4-yl)-4,7-diaza-spiro[2.5]oct-4-yl]-methanone], the pEC50 in test [1] (setting [5]) is above 7.00; in test [2] (setting [6]), above 7.00; in test [3] (setting [7]) it was 6.30 to 7.00; in test [4] (setting [8]), below 6.30.
Regarding `Cc1cc(S(N)(=O)=O)ccc1OCC(=O)N1CCN(c2ncnc3[nH]ccc23)CC12CC2` [Example 411, 3-Methyl-4-{2-oxo-2-[7-(7H-pyrrolo[2,3-d]pyrimidin-4-yl)-4,7-diaza-spiro[2.5]oct-4-yl]-ethoxy}-benzenesulfonamide], the pEC50 in test [1] (setting [9]), in test [2] (setting [10]), in test [3] (setting [11]) and in test [4] (setting [12]) was above 7.00 each time.
For the compound `CC(=O)c1cc(C(=O)N2[C@@H]3CC[C@H]2CN(c2ncnc4[nH]ccc24)C3)cs1` [Example 112, 1-{4-[3-(7H-Pyrrolo[2,3-d]pyrimidin-4-yl)-3,8-diaza-bicyclo[3.2.1]octane-8-carbonyl]-thiophen-2-yl}-ethanone], the pEC50 was above 7.00 in test [1] (setting [5]), above 7.00 in test [2] (setting [6]), 6.30 to 7.00 in test [3] (setting [7]) and below 6.30 in test [4] (setting [8]).
For the compound `COC(=O)c1cc2c(N3CCN(C(=O)Cc4ccc(C#N)cc4)C4(CC4)C3)ncnc2[nH]1` [Example 124, 4-{4-[2-(4-Cyano-phenyl)-acetyl]-4,7-diaza-spiro[2.5]oct-7-yl}-7H-pyrrolo[2,3-d]pyrimidine-6-carboxylic acid methyl ester], the pEC50 in test [1] (setting [5]), in test [2] (setting [6]), in test [3] (setting [7]) and in test [4] (setting [8]) was below 6.30 throughout.
For `O=C(c1ccc(S(=O)(=O)NCc2ccco2)cc1)N1CCN(c2ncnc3[nH]ccc23)CC12CC2` [Example 426, N-Furan-2-ylmethyl-4-[7-(7H-pyrrolo[2,3-d]pyrimidin-4-yl)-4,7-diaza-spiro[2.5]octane-4-carbonyl]-benzenesulfonamide], the pEC50 is above 7.00 in test [1] (setting [9]), above 7.00 in test [2] (setting [10]), above 7.00 in test [3] (setting [11]) and 6.30 to 7.00 in test [4] (setting [12]).
In the case of `O=C(Cc1cccnc1)N1[C@@H]2CC[C@@H]1CN(c1ncnc3[nH]ccc13)C2` [Example 172, 2-Pyridin-3-yl-1-[3-(7H-pyrrolo[2,3-d]pyrimidin-4-yl)-3,8-diaza-bicyclo[3.2.1]oct-8-yl]-ethanone], the pEC50 in test [1] (setting [5]) was below 6.30; in test [2] (setting [6]) it was 6.30 to 7.00; in test [3] (setting [7]), below 6.30; in test [4] (setting [8]) it was below 6.30.
Regarding `NS(=O)(=O)CCCC(=O)N1CCN(c2ncnc3[nH]ccc23)CC12CC2` [Example 143, 4-Oxo-4-[7-(7H-pyrrolo[2,3-d]pyrimidin-4-yl)-4,7-diaza-spiro[2.5]oct-4-yl]-butane-1-sulfonic acid amide], the pEC50 in test [1] (setting [5]) is above 7.00; in test [2] (setting [6]), above 7.00; in test [3] (setting [7]), above 7.00; in test [4] (setting [8]) it was below 6.30.
`CCCCNC(=O)N1CCN(c2ncnc3[nH]ccc23)CC12CC2` [Example 444, 7-(7H-Pyrrolo[2,3-d]pyrimidin-4-yl)-4,7-diaza-spiro[2.5]octane-4-carboxylic acid butylamide]: the pEC50 was above 7.00 in test [1] (setting [13]), above 7.00 in test [2] (setting [14]), 6.30 to 7.00 in test [3] (setting [15]) and below 6.30 in test [4] (setting [16]).
In the case of `Cc1ccc(S(=O)(=O)N2CCN(c3ncnc4[nH]ccc34)CC23CC3)cc1` [Example 439, 4-[4-(Toluene-4-sulfonyl)-4,7-diazaspiro[2.5]oct-7-yl]-7H-pyrrolo[2,3-d]pyrimidine], the pEC50 in test [1] (setting [13]) was above 7.00; in test [2] (setting [14]) it was above 7.00; in test [3] (setting [15]), above 7.00; in test [4] (setting [16]), 6.30 to 7.00.
Consider `O=C(c1ccccn1)N1[C@@H]2CC[C@@H]1CN(c1ncnc3[nH]ccc13)C2` [Example 241, Pyridin-2-yl-[3-(7H-pyrrolo[2,3-d]pyrimidin-4-yl)-3,8-diaza-bicyclo[3.2.1]oct-8-yl]-methanone], for which the pEC50 in test [1] (setting [9]) is above 7.00; in test [2] (setting [10]) it was above 7.00; in test [3] (setting [11]), 6.30 to 7.00; in test [4] (setting [12]), below 6.30.
With `O=C(c1ccccn1)N1CCN(c2ccnc3[nH]ccc23)CC12CC2` [Example 222, Pyridin-2-yl-[7-(1H-pyrrolo[2,3-b]pyridin-4-yl)-4,7-diaza-spiro[2.5]oct-4-yl]-methanone], the negative logarithm of the EC50 (pEC50) in test [1] (setting [9]) is 6.30 to 7.00; in test [2] (setting [10]), 6.30 to 7.00; in test [3] (setting [11]), below 6.30; in test [4] (setting [12]) it was below 6.30.
Regarding `CC1CN(C(=O)c2ccc(C#N)cc2)C2(CC2)CN1c1ncnc2[nH]ccc12` (stereo not drawn) [Example 148, 4-[6-Methyl-7-(7H-pyrrolo[2,3-d]pyrimidin-4-yl)-4,7-diaza-spiro[2.5]octane-4-carbonyl]-benzonitrile], the negative logarithm of the EC50 (pEC50) is above 7.00 in test [1] (setting [5]), above 7.00 in test [2] (setting [6]), 6.30 to 7.00 in test [3] (setting [7]) and below 6.30 in test [4] (setting [8]).
In the case of `Cc1c[nH]c2ncnc(N3CCN(C(=O)c4ccc(C#N)cc4)C4(CC4)C3)c12` [Example 118, 4-[7-(5-Methyl-7H-pyrrolo[2,3-d]pyrimidin-4-yl)-4,7-diaza-spiro[2.5]octane-4-carbonyl]-benzonitrile], the pEC50 in test [1] (setting [5]), in test [2] (setting [6]), in test [3] (setting [7]) and in test [4] (setting [8]) was below 6.30 in each case.
`NS(=O)(=O)c1ccc(C(=O)N2[C@@H]3CC[C@@H]2CN(c2ncnc4[nH]ccc24)C3)cc1` [Example 353, 4-[3-(7H-Pyrrolo[2,3-d]pyrimidin-4-yl)-3,8-diaza-bicyclo[3.2.1]octane-8-carbonyl]-benzenesulfonamide]: the pEC50 in test [1] (setting [9]), in test [2] (setting [10]), in test [3] (setting [11]) and in test [4] (setting [12]) was above 7.00 in each case.
Turning to `Cc1c[nH]c2ncnc(N3CCN(C(=O)Cc4ccc(F)cc4)C4(CC4)C3)c12` [Example 330, 2-(4-Fluoro-phenyl)-1-[7-(5-methyl-7H-pyrrolo[2,3-d]pyrimidin-4-yl)-4,7-diaza-spiro[2.5]oct-4-yl]-ethanone], the pEC50 in test [1] (setting [9]) was 6.30 to 7.00; in test [2] (setting [10]) it was 6.30 to 7.00; in test [3] (setting [11]), 6.30 to 7.00; in test [4] (setting [12]) it was below 6.30.
As to `CNS(=O)(=O)c1cc(C(=O)N2CCN(c3ncnc4[nH]ccc34)CC23CC3)sc1C` [Example 375, 2-Methyl-5-[7-(7H-pyrrolo[2,3-d]pyrimidin-4-yl)-4,7-diaza-spiro[2.5]octane-4-carbonyl]-thiophene-3-sulfonic acid methylamide], the pEC50 is above 7.00 in test [1] (setting [9]), above 7.00 in test [2] (setting [10]), above 7.00 in test [3] (setting [11]) and 6.30 to 7.00 in test [4] (setting [12]).
For the compound `CCc1sc(C(=O)N2CCN(c3ncnc4[nH]ccc34)CC23CC3)cc1Br` [Example 209, (4-Bromo-5-ethyl-thiophen-2-yl)-[7-(7H-pyrrolo[2,3-d]pyrimidin-4-yl)-4,7-diaza-spiro[2.5]oct-4-yl]-methanone], the pEC50 is above 7.00 in test [1] (setting [9]), above 7.00 in test [2] (setting [10]), 6.30 to 7.00 in test [3] (setting [11]) and above 7.00 in test [4] (setting [12]).
In the case of `N#Cc1cccc(CC(=O)N2CCN(c3ncnc4[nH]ccc34)CC23CC3)c1` [Example 25, 3-{2-Oxo-2-[7-(7H-pyrrolo[2,3-d]pyrimidin-4-yl)-4,7-diazaspiro[2.5]oct-4-yl]-ethyl}benzonitrile], the pEC50 was 6.30 to 7.00 in test [1] (setting [5]), above 7.00 in test [2] (setting [6]), 6.30 to 7.00 in test [3] (setting [7]) and below 6.30 in test [4] (setting [8]).
